Literature values in patent US20260216162A1, “SELECTIVE FIASMA TREATMENT” (VALO HEALTH, INC., priority 2023, published 2026).

How the values were obtained:
[1] = system: acid sphyingomyelinase (ASMase); settings: final concentration of 10 µM, 30 minutes, 37° C.; normalized to control cells treated with the solvent alone

Structure (SMILES)	Residual ASMase Activity (%) [1] [%]	Log P
CNCCC(Oc1ccc(C(F)(F)F)cc1)c1ccccc1 (stereo not drawn) [Fluoxetine]	13.0	–
Fc1ccc([C@@H]2CCNC[C@H]2COc2ccc3c(c2)OCO3)cc1 [Paroxetine]	31.7	3.9
